Key:
Assay in all cases: relative viability (nuclei count vs DMSO), 5 days (fraction); higher = more cells survive
[1] = compound: CN(C)C[C@@H]1CCn2cc(c3ccccc32)C2=C(C(=O)NC2=O)c2cn(c3ccccc23)CCO1 [Ruboxistaurin] + CC(C)C[C@H](NC(=O)[C@H](Cc1ccccc1)NC(=O)c1cnccn1)B(O)O [Bortezomib] (partner 0.002 µM)
Summary of the method: (§1)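 Each reported value is a median over duplicate plates. It expresses relative viability: treated-well nuclei count divided by vehicle-well nuclei count. Lung cancer cell lines in 1536-well plates were dosed by pin tool a day after seeding, alone with one drug or with a fixed anchor-drug dose plus five library-drug doses (not always all listed) in √10 steps, and nuclei were counted after 5 days.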

[2] = compound: CN(C)C[C@@H]1CCn2cc(c3ccccc32)C2=C(C(=O)NC2=O)c2cn(c3ccccc23)CCO1 [Ruboxistaurin] + CCNC(=O)c1noc(-c2cc(C(C)C)c(O)cc2O)c1-c1ccc(CN2CCOCC2)cc1 [Luminespib] (partner 0.01 µM)
Summary of the method: as §1

[3] = compound: CN(C)C[C@@H]1CCn2cc(c3ccccc32)C2=C(C(=O)NC2=O)c2cn(c3ccccc23)CCO1 [Ruboxistaurin] + COc1cc2c(Oc3ccc(NC(=O)C4(C(=O)Nc5ccc(F)cc5)CC4)cc3F)ccnc2cc1OCCCN1CCOCC1 [Foretinib] (partner 0.25 µM)
Summary of the method: as §1

[4] = compound: CN(C)C[C@@H]1CCn2cc(c3ccccc32)C2=C(C(=O)NC2=O)c2cn(c3ccccc23)CCO1 [Ruboxistaurin] + Cc1cc(Nc2cc(N3CCN(C)CC3)nc(Sc3ccc(NC(=O)C4CC4)cc3)n2)n[nH]1 [Tozasertib] (partner 0.1 µM)
Summary of the method: as §1

[5] = compound: CN(C)C[C@@H]1CCn2cc(c3ccccc32)C2=C(C(=O)NC2=O)c2cn(c3ccccc23)CCO1 [Ruboxistaurin] + O=C(CCCCCCC(=O)Nc1ccccc1)NO [Vorinostat] (partner 1 µM)
Summary of the method: as §1

Cell Line	relative viability ([1]; first compound 0.08 µM)	relative viability ([1]; first compound 0.8 µM)	relative viability ([1]; first compound 2.53 µM)	relative viability ([1]; first compound 8 µM)	relative viability ([2]; first compound 0.08 µM)	relative viability ([2]; first compound 0.8 µM)	relative viability ([2]; first compound 2.53 µM)	relative viability ([2]; first compound 8 µM)	relative viability ([3]; first compound 0.08 µM)	relative viability ([3]; first compound 0.8 µM)	relative viability ([3]; first compound 2.53 µM)	relative viability ([3]; first compound 8 µM)	relative viability ([4]; first compound 0.08 µM)	relative viability ([4]; first compound 0.8 µM)	relative viability ([4]; first compound 2.53 µM)	relative viability ([4]; first compound 8 µM)	relative viability ([5]; first compound 0.08 µM)	relative viability ([5]; first compound 0.8 µM)	relative viability ([5]; first compound 2.53 µM)	relative viability ([5]; first compound 8 µM)
NCI-H3122	1.07	0.953	1.01	1.1	0.0884	0.1	0.11	0.0946	0.938	0.982	1.01	0.975	0.426	0.43	0.426	0.334	1.14	0.948	1.03	1.3
PC-3 [JPC-3]	0.855	0.804	0.793	0.85	0.703	0.649	0.75	0.757	1.06	1.03	1.02	1.09	0.91	0.852	0.852	0.841	0.895	0.917	0.839	0.837
PC-14	1.11	0.743	0.899	1.1	0.159	0.144	0.184	0.154	1.01	0.87	1	0.984	0.596	0.518	0.546	0.532	0.892	0.668	0.785	0.648
RERF-LC-KJ	1.09	0.992	1.1	0.937	1.23	1.08	1.36	0.965	0.879	0.777	0.864	0.869	0.515	0.401	0.49	0.462	0.663	0.623	0.675	0.644
SK-LU-1	1.37	1.03	1.22	1.07	0.208	0.212	0.204	0.2	0.93	0.809	0.772	0.683	0.414	0.33	0.323	0.265	0.946	0.722	0.776	0.657
SW 1573	0.892	0.973	0.983	1.05	0.232	0.208	0.314	0.182	1.15	0.866	1.03	0.762	0.256	0.19	0.168	0.124	0.756	0.413	0.809	0.698
UMC-11	0.725	0.667	0.691	0.564	1.04	0.804	0.961	0.695	1.05	0.951	0.904	0.646	0.203	0.211	0.248	0.177	0.41	0.377	0.388	0.289

Reference: the supplement of paper PMC10307832
